This data set in a line: Human HepG2 cell viability assay in 384 well format. It is filed as toxicity, cell-based. On the set-up: dose 125 nL, time 70.5 hour; concentration not given beside the values. To be noted: HepG2 cells, read-out: Inhibition.
As to `CCc1ccc(C(=O)N2CCCC3(CCCC(=O)N3C)C2)cc1` (configuration not stated), the cytotoxicity at 70.5 h is -10.6%.
Then `O=C(NCC1CC1)C1CCC2(CCN(C(=O)c3ccoc3)CC2)O1` (configuration not stated), with -20%; and `Cc1nc(CN2C(=O)C[C@@H]3[C@@H]2CCN3Cc2cnn(C)c2)cs1`, with -15.4%; and `CN(C)CCN1C(=O)CCC12CCCN(C(=O)CC1CC1)CC2` (configuration not stated), with 20.2%.
`O=C(C1CCOCC1)N1CC[C@@H](O)[C@@H]1Cc1ccncc1`: the cytotoxicity at 70.5 h is -0.548%.
With `CCOCC(=O)N1CCC2(CC1)CN(Cc1cccnc1)C(=O)CO2`, the cytotoxicity at 70.5 h was -9.22%.
Turning to `c1cnc(N2CCCC3(CCN(Cc4cccs4)C3)C2)nc1` (configuration not stated), the cytotoxicity at 70.5 h is -6.41%.
For the molecule `COCCN1C(=O)CCC12CCCN(C(=O)CC1CC1)CC2` (configuration not stated), the cytotoxicity at 70.5 h is -6.84%.
Take `O=C(c1ccnnc1)N1CC[C@@H](O)[C@@H]1Cc1ccccc1`: the cytotoxicity at 70.5 h was -9.3%.
Then `CN(C)C(=O)N1CC[C@@H](O)[C@@H]1Cc1ccccc1`, with -7.54%; and `O=C1CC2(CCCCN2C(=O)c2cccs2)CN1CC1CC1` (configuration not stated), with 3.54%.
Then `CN(C)CCNC(=O)c1ccc2ccc(N(C)CC3CC3)n2c1`, with -0.944%; and `Cc1nc(N2CCOCC2)nc2c1CCN(C(=O)N1CCCC1)CC2`, with -2.06%.
For `Cc1cccc(CN2C(=O)CCC23CCN(Cc2ccoc2)CC3)n1`, the cytotoxicity at 70.5 h is -0.993%.
With `CN(C)C(=O)CNC(=O)c1ccc2ccc(N(C)CC3CC3)n2c1`, the cytotoxicity at 70.5 h is -12.4%.
Then `CCS(=O)(=O)N1CCc2nc(N3CCCC3)nc(N(C)C)c2CC1`, with 24.9%; and `CCS(=O)(=O)N1CCOC2(COCCN(C(C)=O)C2)C1` (configuration not stated), with 28.6%; and `CN(C)C(=O)CN1C(=O)CCC12CCN(Cc1ccsc1)CC2`, with -15.7%.
Then `CCN1C(=O)CCC12CCCN(Cc1ccc(F)cc1)CC2` (configuration not stated), with -9.34%; and `Cc1ccc(CN2CCC3(CCC(=O)N3CC(=O)N(C)C)CC2)s1`, with -13.1%; and `O=C(C1CCCC1)N1C[C@@H]2CCN(c3cnccn3)C[C@@H]2C1`, with -1.88%.
Then `CC(=O)N1CCN(Cc2ccco2)CC2(CC(=O)N(C)C2)C1` (configuration not stated), with 20.7%; and `O=C(c1ccco1)N1CC2(CCNCC2)c2cc(Cl)ccc21`, with 27.2%; and `O=C1CC2(CCCCN2C(=O)c2ccncc2)CN1CC1CC1` (configuration not stated), with 1.69%.
`O=C1CCC2(CCN(Cc3ccc(F)cc3)CC2)N1CCN1CCCC1`: the cytotoxicity at 70.5 h is -19.9%.
Take `CN1[C@@H](C(=O)NCC2CC2)C[C@H]2CN(Cc3cccc(C#N)c3)C[C@H]21`: the cytotoxicity at 70.5 h is -13.8%.
With `CN1CCC(CN2CCC3(CCCN(Cc4ccoc4)C3)C2=O)CC1` (configuration not stated), the cytotoxicity at 70.5 h was -10.7%.
For the molecule `c1ccc(N2CCC3(COCCN(Cc4cccs4)C3)C2)nc1` (configuration not stated), the cytotoxicity at 70.5 h is -4.82%.
As to `C[C@@H]1CN(Cc2cccc(F)c2)C[C@]12CCN(Cc1cccnc1)C2=O`, the cytotoxicity at 70.5 h is -10.4%.
Then `CNC(=O)[C@H]1C[C@@H]2CN(Cc3cccnc3OC)C[C@@H]2N1C(C)=O`, with -9.57%.
Then `Cc1ccc(C(=O)N2CC3(CCNCC3)c3cc(Cl)ccc32)cn1`, with -7.61%; and `O=C(c1ccncc1)N1CC2(CCNCC2)c2cc(Cl)ccc21`, with -6.69%; and `COCCN1CC[C@]2(CN(Cc3cccnc3)C[C@H]2C)C1=O`, with -10.8%.
Then `CN(C)CCN1CCCC12CCCN(C(=O)c1cccnc1)C2` (configuration not stated), with -5.22%; and `C[C@H]1CN(CC2CCOCC2)C[C@@]12CCN(Cc1cccnc1)C2=O`, with -9.39%; and `Cc1cccc(CN2C(=O)CCC23CCN(c2ccccn2)CC3)n1`, with -9.61%.
For `C[C@@H]1CN(Cc2ccccn2)C[C@]12CCN(Cc1cccnc1)C2=O`, the cytotoxicity at 70.5 h was -13.1%.

These data come from ChEMBL document CHEMBL3507680, “University of Dundee, Gates Library screen for HepG2 cell viability”.
